Laboratory results as given in patent US10413532B2, “Pharmaceutical compositions containing a PDE4 inhibitor and a PI3 delta or dual PI3 delta-gamma kinase inhibitor” (Rhizen Pharmaceuticals SA, priority 2012, dated 2019).

Tests used:
[1] = test system: macrophage and neutrophil infiltration; experiment: Acute cigarette smoke induced cell infiltration in male Balb/c mice; type: in vivo; conditions: acute CS, mouse
Experimental: Animals were acclimatized for seven days prior to the start of the experiment. Animals were randomly distributed to various groups based on their body weights. On day 1, mice were administered by test compound or vehicle by the oral route and after 30 mins test compound administration animals were placed in a whole body exposure box. The mice were exposed to the mainstream smoke of 6 cigarettes from day 1 to day 4. Exposure to the smoke of each cigarette lasted for 10 min (cigarettes were completely burned in the first two minutes and followed by an air flow with animal ventilator) followed by exposure for the next 20 min with fresh room air. After every second cigarette an additional break of 20 min with exposure to fresh room air was conducted. Control animals were exposed to the room air chamber. From day 1 to day 4 animals were administered test compound by the oral route. On day 5, 24 hours after the last cigarette smoke (CS) exposure. animals were exsanguinated under anaesthesia, and the trachea was cannulated and the lungs were lavaged with 0.5 ml aliquots of heparinised PBS (1 unit/ml) four times through a tracheal cannula (total volume 2 ml). Bronchioalveolar (BAL) collected was stored at 2-8° C. until assayed for total cell and differential leukocyte count. BAL fluid was centrifuged (500×g for 10 min) and the resulting cell pellet was resuspended in 0.5 ml of heparinised saline. The total number of white blood cells was determined in BAL fluid and blood using a blood cell counter and adjusted to 1×10^6 cell/ml. Differential cell count was calculated manually. Forty microliters of the cell suspension was centrifuged using cytospin 3 to prepare a cell smear. The cell smear was stained with a blood staining solution for differentiation and microscopically observed by identifying each cell according to its morphological characteristics. The number of each cell type among 300 white blood cells in the cell smear were determined and expressed as a percentage, and the number of neutrophils and macrophages in each BAL fluid were calculated.
The procedure for acute cigarette smoke induced cell infiltration in male Balb/c mice described in Example 1 was performed with Compound A1 and roflumilast

elastase = experiment: fMLP induced elastase release from human neutrophils; type: cell-based; conditions: Neutrophil, compound alone
Experimental: Blood was procured from a local blood bank. Neutrophils were obtained using the dextran sedimentation method. Cells were plated at 100,000 cells per well in a 96-well plate, treated with fMLP (1 μM) and N-Succinyl-Ala-Ala-Ala-p-nitroanalide (1 μM) (Sigma) and incubated for 2 h. Intensity of digested substrate after incubation was determined by measuring the absorbance at 405 nm on a Fluostar Omega (BMG Labtech, NC, USA).

A549 cells = experiment: Cell cycle analysis / CSE induced apoptosis in A549 cells; type: cell-based; conditions: compound alone, CSE 72 h
Experimental: A549 cells were plated in 6-well plates at a density of 100,000 cells per well and stimulated with CSE for 72 h. After incubation, cells were fixed in 70% ethanol and stored at 4° C. till analysis. Cells were stained with Guava Cell Cycle reagent according to the manufacturer's instructions. Cell cycle data were obtained using the Guava Personal Cell Analysis System (Millipore, USA).

neutrophil infiltration = experiment: Lipopolysaccharide induced pulmonary neutrophilia in female Wistar rats; type: in vivo
Experimental: After the quarantine period, fasted animals were randomized and divided into groups depending on their body weights. Test compound was prepared as a suspension in a vehicle consisting of 0.5% methylcellulose in which Tween 80 was used as a suspending agent. Compounds or vehicle were administered by oral gavage in a volume of 10 mL/kg. Animals were anaesthetized with ketamine and LPS solution was administered intratracheally 30 minutes after compound administration at a dose of 1 mg/kg. Six hours after LPS instillation, animals were exsanguinated under anaesthesia, and the trachea was cannulated, and lungs were lavaged with 5-ml aliquots of heparinised PBS (1 unit/ml) four times through the tracheal cannula (total volume 20 ml). Bronchioalveolar (BAL) fluid was stored at 2-8° C. until assayed for total cell and differential leukocyte count. BAL fluid was centrifuged (500×g for 10 min) and the resulting cell pellet was resuspended in 0.5 ml of heparinised saline. The total numbers of white blood cells were determined in BAL fluid or blood using a cell counter and were adjusted to 1×10^6 cell/ml. Differential cell count was calculated manually. One hundred microliters of the cell suspension was centrifuged using cytospin 3 to prepare a cell smear. The cell smear was stained with a blood staining solution for differentiation and slides were microscopically observed to identify eosinophils according to their morphological characteristics. The number of each cell type among 300 white blood cells in the cell smear was determined and expressed as a percentage of total cells. The number of eosinophil in BALF was calculated.
The procedure for LPS induced pulmonary neutrophilia in female Wistar rats as described in Example 1 was performed with compound A1 and roflumilast.

TNFα = experiment: LPS induced TNFα in PBMC; type: cell-based; conditions: 10 nM alone, LPS
Experimental: PBMC (peripheral blood mononuclear cells) from whole blood were isolated by density gradient using Histopaque and incubated with the desired concentration of inhibitor for 15 minutes. LPS (1 μg/ml) was added and then incubated for 24 hours. The supernatant was collected and TNFα estimated using an eBioscience TNFα ELISA kit.
PBMC from whole blood were isolated by density gradient using Histopaque and incubated with the desired concentration of inhibitor for 15 minutes. LPS (1 μg/m1) was added and then incubated for 24 hours. The supernatant was collected and TNFα estimated using an eBioscience TNFα ELISA kit.

pAkt (S473) = experiment: phospho-Akt (S473) in differentiated U937 cells stimulated with cigarette smoke extract (SDS-PAGE); type: cell-based; conditions: Homo sapiens, U-937; compound alone; differentiated U937, CSE; read-out: IC50 of inhibition of Akt phosphorylation
Experimental: U-937 monocytes were differentiated into macrophages by incubation with 50 ng/ml PMA for 48 h. Cells were trypsinized and plated at a density of 100,000 per well and stimulated with CSE for 2 h in starvation media. Lysates were made using RIPA buffer and run by SDS-PAGE, transferred to PVDF membrane and probed with phospho-Akt (S473) antibody (Cell signaling, USA) followed by anti-rabbit IgG (Cell signaling, USA). Band intensity was calculated using ImageJ 1.42 (NIH, USA).

[2] = 3 mg/kg oral, dose-response study
[3] = combination study, alone at 3.5 mg/kg

For O=C(Nc1c(Cl)cncc1Cl)c1ccc(OC(F)F)c(OCC2CC2)c1 [Compound A, roflumilast, reference compound], the “percent inhibition of macrophage infiltration” value ([1]; 1 mg/kg oral) was 22.2%, the “percent inhibition of neutrophil infiltration” value ([1]; 1 mg/kg oral) was 70.85% and the “percent inhibition of macrophage infiltration” value [1, 2] was 51.00%. The “percent inhibition of neutrophil infiltration” value [1, 2] was 73.69%, the “percent inhibition of macrophage infiltration” value ([1]; 10 mg/kg oral) was 69.11% and the “percent inhibition of neutrophil infiltration” value ([1]; 10 mg/kg oral) was 83.01%. The ED50 ([1]; Macrophage, oral, read-out: 50% inhibition (ED50) dose, macrophage infiltration) was 3.5 mg/kg, the “inhibition of macrophage infiltration” value [1, 3] was 26.55% and the “inhibition of neutrophil infiltration” value [1, 3] was 44.42%. For the same molecule, the Emax (elastase; Homo sapiens, read-out: Emax of inhibition of elastase release) was 43%, the IC50 (elastase; human neutrophils, read-out: IC50 of inhibition of fMLP induced elastase release) was 10.2 nM and the inhibition of apoptosis (A549 cells) was “dose-dependent inhibition of apoptosis”. The “percent inhibition of neutrophil infiltration” value (neutrophil infiltration; 0.3 mg/kg oral, rat BAL fluid 6 h after LPS) was −7.89%, the “percent inhibition of neutrophil infiltration” value (neutrophil infiltration; 1 mg/kg oral, dose-response study, rat) was 43.46% and the “percent inhibition of neutrophil infiltration” value (neutrophil infiltration; 3 mg/kg oral, rat) was 68.02%. The “percent inhibition of neutrophil infiltration” value (neutrophil infiltration; 10 mg/kg oral, rat) was 92.21%, the ED50 (neutrophil infiltration; Neutrophil, oral, rat LPS pulmonary neutrophilia, read-out: 50% inhibition (ED50) dose, neutrophil infiltration) was 1.8 mg/kg and the “inhibition of neutrophil infiltration” value (neutrophil infiltration; combination study, alone at 1.8 mg/kg, rat) was 36.18%. For the same molecule, the “decrease of TNFα secretion” value (TNFα) was 25% and the IC50 (pAkt (S473)) was 1930 nM.
